Experimental data: paper PMC7914897, “Cytotoxic Potential of a-Azepano- and 3-Amino-3,4-SeCo-Triterpenoids” (International Journal of Molecular Sciences, 2021)

Columns and labels:
MALME-3M (Melanoma) = experiment: NCI-60 screen (SRB, 48 h); details: Homo sapiens; for IC (TGI): 48 h, read-out: TGI
COLO 205 (Colon cancer) = experiment: NCI-60 screen (SRB, 48 h); details: Homo sapiens; for GI50: COLO 205; for IC (TGI): COLO 205, 48 h, read-out: TGI
SNB-75 (CNS cancer) = experiment: NCI-60 screen (SRB, 48 h); details: Homo sapiens; for GI50: SNB-75; for IC (TGI): SNB-75, 48 h, read-out: TGI; for CC50: SNB-75, read-out: LC50
HOP-92 (NSC lung cancer) = experiment: NCI-60 screen (SRB, 48 h); details: Homo sapiens; for GI50: HOP-92; for IC (TGI): HOP-92, 48 h, read-out: TGI
MCF7 (Breast cancer) = experiment: NCI-60 screen (SRB, 48 h); details: Homo sapiens; for GI50: MCF7; for IC (TGI): MCF7, 48 h, read-out: TGI
SF-295 (CNS cancer) = experiment: NCI-60 screen (SRB, 48 h); details: Homo sapiens; for GI50: SF-295; for IC (TGI): SF-295, 48 h, read-out: TGI
[1] = test system: NCI-H226 (NSC lung cancer); experiment: NCI-60 screen (SRB, 48 h); details: Homo sapiens; for GI50: NCI-H226; for IC (TGI): NCI-H226, 48 h, read-out: TGI
Melanoma subpanel = experiment: NCI-60 screen, subpanel; details: Homo sapiens; for IC (TGI): 48 h, read-out: TGI MG_MID; for GI50: read-out: GI50 MG_MID; for CC50: read-out: LC50 MG_MID
OVCAR-5 (Ovarian cancer) = experiment: NCI-60 screen (SRB, 48 h); details: Homo sapiens; for GI50: OVCAR-5; for IC (TGI): OVCAR-5, 48 h, read-out: TGI
SW-620 (Colon cancer) = experiment: NCI-60 screen (SRB, 48 h); details: Homo sapiens; for GI50: SW-620; for IC (TGI): SW-620, 48 h, read-out: TGI
CNS cancer subpanel = experiment: NCI-60 screen, subpanel; details: Homo sapiens; for IC (TGI): 48 h, read-out: TGI MG_MID; for GI50: read-out: GI50 MG_MID; for CC50: read-out: LC50 MG_MID
ACHN (Renal cancer) = experiment: NCI-60 screen (SRB, 48 h); details: Homo sapiens; for IC (TGI): 48 h, read-out: TGI; for CC50: read-out: LC50
HCT-15 (Colon cancer) = experiment: NCI-60 screen (SRB, 48 h); details: Homo sapiens; for GI50: HCT-15; for IC (TGI): HCT-15, 48 h, read-out: TGI
HCC-2998 (Colon cancer) = experiment: NCI-60 screen (SRB, 48 h); details: Homo sapiens; for GI50: HCC 2998; for IC (TGI): HCC 2998, 48 h, read-out: TGI
SN12C (Renal cancer) = experiment: NCI-60 screen (SRB, 48 h); details: Homo sapiens; for IC (TGI): 48 h, read-out: TGI
SNB-19 (CNS cancer) = experiment: NCI-60 screen (SRB, 48 h); details: Homo sapiens; for GI50: SNB-19; for IC (TGI): SNB-19, 48 h, read-out: TGI
HCT-116 (Colon cancer) = experiment: NCI-60 screen (SRB, 48 h); details: Homo sapiens; for GI50: HCT-116; for activity at 10 µM: HCT-116, 48 h, read-out: Growth % of the Most Sensitive Cell Lines
M14 (Melanoma) = experiment: NCI-60 screen (SRB, 48 h); details: Homo sapiens; for GI50: M14; for IC (TGI): M14, 48 h, read-out: TGI
[2] = test system: MDA-MB-31/ATCC (Breast cancer); experiment: NCI-60 screen (SRB, 48 h); details: Homo sapiens; for IC (TGI): 48 h, read-out: TGI
UACC-257 (Melanoma) = experiment: NCI-60 screen (SRB, 48 h); details: Homo sapiens; for GI50: UACC-257; for IC (TGI): UACC-257, 48 h, read-out: TGI
[3] = test system: NIH 3T3 (non-malignant mouse fibroblasts); experiment: SRB cytotoxicity assay, 72 h; assay type: cell-based; details: Mus musculus, NIH3T3; NIH 3T3, 72 h, cut-off 30 µM; read-out: EC50
Outline: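 Seed, 24 h; compound 0–30 µM serial dilutions, 72 h (DMSO ≤0.5%); fix 10% TCA, 4 °C; stain 0.4% SRB ~20 min; 1% AcOH wash; solubilise 10 mM Tris; A570. EC50 vs untreated.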

[4] = test system: NCI-H322M (NSC lung cancer); experiment: NCI-60 screen (SRB, 48 h); details: Homo sapiens; for IC (TGI): 48 h, read-out: TGI; for CC50: read-out: LC50
A498 (Renal cancer) = experiment: NCI-60 screen (SRB, 48 h); details: Homo sapiens; for GI50: A498; for IC (TGI): A498, 48 h, read-out: TGI; for CC50: A498, read-out: LC50

## Cc1ccc(S(=O)(=O)OC[C@]23CCC(C)(C)C[C@H]2C2=CC[C@@H]4[C@@]5(C)CCCNC(C)(C)[C@@H]5CC[C@@]4(C)[C@]2(C)CC3)cc1 [Compound 15]
MALME-3M (Melanoma)
  GI50: 1.77 µM
  IC (TGI): 3.56 µM
COLO 205 (Colon cancer)
  GI50: 1.63 µM
  IC (TGI): 3.19 µM
SNB-75 (CNS cancer)
  GI50: 1.48 µM
  IC (TGI): 2.94 µM
  CC50: 5.85 µM
HOP-92 (NSC lung cancer)
  GI50: 1.35 µM
  IC (TGI): 2.8 µM
MCF7 (Breast cancer)
  GI50: 1.62 µM
  IC (TGI): 3.38 µM
SF-295 (CNS cancer)
  GI50: 1.71 µM
  IC (TGI): 3.3 µM
[1]
  GI50: 1.71 µM
  IC (TGI): 3.77 µM
Melanoma subpanel
  IC (TGI): 3.53 µM
  GI50: 1.81 µM
  CC50: 16.4 µM
OVCAR-5 (Ovarian cancer)
  GI50: 1.61 µM
  IC (TGI): 3.01 µM
SW-620 (Colon cancer)
  GI50: 1.73 µM
  IC (TGI): 3.36 µM
CNS cancer subpanel
  IC (TGI): 4.11 µM
  GI50: 1.78 µM
  CC50: 26.5 µM
ACHN (Renal cancer)
  GI50: 1.68 µM
  IC (TGI): 3.07 µM
  CC50: 5.58 µM
HCT-15 (Colon cancer)
  GI50: 1.65 µM
  IC (TGI): 3.2 µM
HCC-2998 (Colon cancer)
  GI50: 1.63 µM
  IC (TGI): 3.21 µM
SN12C (Renal cancer)
  GI50: 1.67 µM
  IC (TGI): 3.3 µM
SNB-19 (CNS cancer)
  GI50: 1.72 µM
  IC (TGI): 3.54 µM
HCT-116 (Colon cancer)
  GI50: 1.8 µM
  activity at 10 µM: -83%
M14 (Melanoma)
  GI50: 1.87 µM
  IC (TGI): 3.58 µM
[2]
  GI50: 1.91 µM
  IC (TGI): 4.12 µM
UACC-257 (Melanoma)
  GI50: 1.85 µM
  IC (TGI): 3.54 µM
[3]
  EC50: 2.76 ± 0.3 µM
[4]
  GI50: 14.9 µM
  IC (TGI): 4.05 µM
  CC50: > 100 µM
A498 (Renal cancer)
  GI50: 5.99 µM
  IC (TGI): 21.4 µM
  CC50: 57.6 µM

## Cc1ccc(S(=O)(=O)OC[C@@]2(C)CC[C@]3(C)CC[C@]4(C)C(=C3C2)C=C[C@@H]2[C@@]3(C)CCCNC(C)(C)[C@@H]3CC[C@]24C)cc1 [Compound 16]
MALME-3M (Melanoma)
  GI50: 1.68 µM
  IC (TGI): 3.26 µM
MALME-3M (Melanoma); read-out: LC50
  CC50: 6.34 µM
COLO 205 (Colon cancer)
  GI50: 1.62 µM
  IC (TGI): 3.26 µM
SNB-75 (CNS cancer)
  GI50: 1.61 µM
  IC (TGI): 3.1 µM
  CC50: 5.97 µM
HOP-92 (NSC lung cancer)
  GI50: 1.45 µM
  IC (TGI): 2.97 µM
HOP-92 (NSC lung cancer); HOP-92, read-out: LC50
  CC50: 6.11 µM
MCF7 (Breast cancer)
  GI50: 1.51 µM
  IC (TGI): 3.18 µM
SF-295 (CNS cancer)
  GI50: 1.78 µM
  IC (TGI): 3.29 µM
SF-295 (CNS cancer); SF-295, read-out: LC50
  CC50: 6.08 µM
[1]
  GI50: 1.66 µM
  IC (TGI): 3.47 µM
Melanoma subpanel
  IC (TGI): 3.36 µM
  GI50: 1.77 µM
  CC50: 6.16 µM
OVCAR-5 (Ovarian cancer)
  GI50: 1.77 µM
  IC (TGI): 3.21 µM
OVCAR-5 (Ovarian cancer); OVCAR-5, read-out: LC50
  CC50: 5.81 µM
SW-620 (Colon cancer)
  GI50: 1.78 µM
  IC (TGI): 3.54 µM
SW-620 (Colon cancer); SW-620, read-out: LC50
  CC50: 7.04 µM
CNS cancer subpanel
  IC (TGI): 3.4 µM
  GI50: 1.77 µM
  CC50: 6.49 µM
ACHN (Renal cancer)
  GI50: 1.72 µM
  IC (TGI): 3.1 µM
  CC50: 5.5 µM
HCT-15 (Colon cancer)
  GI50: 1.61 µM
  IC (TGI): 3.17 µM
HCC-2998 (Colon cancer)
  GI50: 1.58 µM
  IC (TGI): 3.18 µM
SN12C (Renal cancer)
  GI50: 1.79 µM
  IC (TGI): 3.41 µM
SNB-19 (CNS cancer)
  GI50: 1.91 µM
  IC (TGI): 3.62 µM
HCT-116 (Colon cancer)
  GI50: 1.54 µM
  activity at 10 µM: -91.5%
M14 (Melanoma)
  GI50: 1.8 µM
  IC (TGI): 3.62 µM
[2]
  GI50: 1.98 µM
  IC (TGI): 3.91 µM
UACC-257 (Melanoma)
  GI50: 1.85 µM
  IC (TGI): 3.68 µM
[3]
  EC50: 2.45 ± 0.1 µM
[4]
  GI50: 1.62 µM
  IC (TGI): 3.01 µM
  CC50: 5.62 µM
A498 (Renal cancer)
  GI50: 1.71 µM
  IC (TGI): 3.13 µM
  CC50: 5.74 µM
